From patent US6699860B2, “Di-substituted aminomethyl-chroman derivative beta-3 adrenoreceptor agonists” (Bayer Pharmaceuticals Corporation, priority 2000, dated 2004)
Counter-ions that a name gives are not always drawn.

test system: not given; experiment: not given; conditions: not given

Compound	melting point [°C]
O=C(O)c1ccc(-c2ccc3c(c2)CC[C@H](CNC[C@H](O)COc2ccccc2)O3)cc1 (as salt: hydrochloride) [Example 142, 4-[(2R)-2-({[(2S)-2-Hydroxy-3-phenoxyropyl]amino}methyl)-3,4-dihydro-2H-chromen-6-yl]benzoic acid]	250

target: T1, human beta-3-adrenergic receptor (Homo sapiens, UniProt P13945); experiment: cAMP production (SPA) in CHO cells stably expressing human beta-3-adrenergic receptor, agonist activity; type: cell-based; conditions: cAMP production in CHO cells expressing human beta-3-adrenergic receptor; compounds binned (≦1 μM or >1 μM); read-out: Beta-3 Agonistic Activity, EC50 values
T1 construct: Chinese hamster ovary (CHO) cells that stably express full-length human beta-3-adrenergic receptor; expressed in transfected cells
T1 sequence (P13945 whole entry): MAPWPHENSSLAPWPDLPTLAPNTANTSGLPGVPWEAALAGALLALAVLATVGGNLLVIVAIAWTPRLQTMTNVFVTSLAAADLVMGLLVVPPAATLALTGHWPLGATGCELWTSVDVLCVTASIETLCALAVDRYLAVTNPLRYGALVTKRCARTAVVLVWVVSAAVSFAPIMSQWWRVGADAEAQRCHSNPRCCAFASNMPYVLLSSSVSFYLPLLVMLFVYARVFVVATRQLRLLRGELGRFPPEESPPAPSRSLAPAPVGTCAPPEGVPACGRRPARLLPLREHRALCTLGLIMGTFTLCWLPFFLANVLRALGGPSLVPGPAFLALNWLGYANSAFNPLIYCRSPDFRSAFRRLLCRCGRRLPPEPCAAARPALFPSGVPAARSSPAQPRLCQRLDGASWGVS
Method: The cell line is grown in 90% F12 nutrient mixture (HAM), 10% fetal bovine serum, 100 units/ml penicillin G sodium, […] streptomycin sulfate, and 2 mM L-glutamine at 37° C. in 95% air and 5% CO2. The transfected cell line is maintained with G418 (800ug/ml).
To test agonist activity, cells are exposed to test compound and then assayed for cAMP production. […] Test compounds are assayed from 10 μM to 3 nM with 3-fold serial dilutions. The control agonist, isoproterenol (10 mM stock in 1.1 mM ascorbate), is assayed by 3-fold dilution beginning at 1 μM. Following a 30-minute incubation with the test compounds, the buffer/compound mixture is removed. […] The cAMP values are then plotted to ascertain the EC50 of each compound tested.

Compound	EC50 [nM]
CCN(CC)c1cc(-c2ccc3c(c2)CC[C@H](CNC[C@H](O)COc2ccccc2)O3)ccc1C(=O)O [Example 199]	≤ 1000
O=C(O)c1ccc(-c2ccc3c(c2)CC[C@H](CNC[C@H](O)COc2cccc(Cl)c2)O3)cc1 [Example 254]	≤ 1000
O=C(O)CCc1ccc2c(c1)CC[C@H](CNC[C@H](O)COc1ccccc1)O2 [Example 263, 3-[(2R)-2-({[(2S)-2-Hydroxy-3-phenoxypropyl]amino}methyl)-3,4-dihydro-2H-chromen-6-yl]propanoic acid]	≤ 1000
CCOC(=O)c1sc(-c2ccc3c(c2)CC[C@H](CNC[C@H](O)COc2ccccc2)O3)nc1C(C)C [Example 137]	> 1000
CCOC(=O)c1nc(-c2ccc3c(c2)CC[C@H](CNC[C@H](O)COc2ccccc2)O3)oc1-c1ccccc1 [Example 134]	> 1000
COc1ccc(OCC(O)CNC[C@H]2CCc3cc(-c4ccc(C(=O)O)cc4)ccc3O2)cc1 (stereo partly drawn) [Example 230]	> 1000
Cc1ccccc1OCC(O)CNC[C@H]1CCc2cc(-c3ccc(C(=O)O)cc3)ccc2O1 (stereo partly drawn) [Example 227]	≤ 1000
COCCOc1cc(-c2ccc3c(c2)CC[C@H](CNC[C@H](O)COc2ccccc2)O3)ccc1C(=O)O [Example 210]	≤ 1000
O=C(O)c1ccc(-c2ccc3c(c2)CC[C@H](CNCC(O)COc2ccccc2-c2ccccc2)O3)cc1 (stereo partly drawn) [Example 239]	≤ 1000
O=C(O)CCc1ccc2c(c1)CC[C@H](CNC[C@H](O)COc1ccccc1Cl)O2 [Example 264, 3-[(2R)-2-({[(2S)-3-(2-chlorophenoxy)-2-hydroxypropyl]amino}methyl)-3,4-dihydro-2H-chromen-6-yl]propanoic acid]	≤ 1000
O=C(O)c1nc(-c2ccc3c(c2)CC[C@H](CNC[C@H](O)COc2ccccc2)O3)sc1-c1ccccc1 [Example 188]	≤ 1000
Cc1ccc(-c2cc(-c3ccc4c(c3)CC[C@H](CNC[C@H](O)COc3ccccc3)O4)ccc2C(=O)O)cc1 [Example 217]	≤ 1000
COC(=O)c1nc(-c2ccc3c(c2)CC[C@H](CNC[C@H](O)COc2ccccc2)O3)sc1C(C)C [Example 138]	> 1000
COc1ccc(SC[C@@H](O)CNC[C@H]2CCc3cc(-c4ccc(C(=O)O)cc4)ccc3O2)cc1 [Example 179]	> 1000
O=C(O)c1ccc(-c2ccc3c(c2)CC[C@H](CNC[C@H](O)COc2ccccc2)O3)cc1-c1ccc(Cl)cc1 [Example 216]	≤ 1000
COC(=O)c1csc(-c2ccc3c(c2)CC[C@H](CNC[C@H](O)COc2ccccc2)O3)c1 [Example 132]	≤ 1000
O=C(O)c1ccc(-c2ccc3c(c2)CC[C@H](CNC[C@H](O)COc2cccc4[nH]c5ccccc5c24)O3)cc1 [Example 141, 4-[(2R)-2-({[(2S)-3-(9H-Carbazol-4-yloxy)-2-hydroxypropyl]amino}methyl)-3,4-dihydro-2H-chromen-6-yl]benzoic acid]	≤ 1000
O=C(O)c1cc(-c2ccc3c(c2)CC[C@H](CNC[C@H](O)COc2ccccc2)O3)cc2c1OCC2 [Example 185]	≤ 1000
CC(C)c1ccccc1SC[C@@H](O)CNC[C@H]1CCc2cc(-c3ccc(C(=O)O)cc3)ccc2O1 [Example 171]	≤ 1000
O=C(O)CCc1ccc2c(c1)CC[C@H](CNC[C@H](O)COc1ccc(Cl)cc1)O2 [Example 267]	> 1000
